Legend:
[1] = tested on: HGPS primary fibroblasts (AG11498 and AG06267); assay: Misshapen nuclei in HGPS cells; type: cell-based, human; settings: HGPS patient fibroblasts
Procedure: U2OS and SaOS-2 osteosarcoma cells, HeLa cervical cancer cells, A431 melanoma cells, NCI-SNU5 gastric cancer cells, MRC-5 lung fibroblast cells and Werner syndrome patient-derived SV40 fibroblast cells were grown in Dulbecco's modified Eagle medium (DMEM, Sigma-Aldrich) supplemented with 10% fetal bovine serum (BioSera), 2 mM L-glutamine, 100 U per ml penicillin, 100 μg ml^−1 streptomycin. Normal skin primary fibroblasts GM03440 and Hutchinson Gilford Progeria Syndrome (HGPS) skin primary fibroblasts AG11498 and AG06297 were purchased from Coriell Cell Repositories and used between passage number 9-12 and 20-23 respectively. Cells were grown in DMEM supplemented as above. RPE-1 retinal pigment epithelial cells were grown in DMEM and Ham F12 mix medium supplemented as above and buffered with sodium bicarbonate. HMV-II melanoma cell line, 22RV1 prostate carcinoma cells, NCI-H82 and NCI-H69 lung carcinoma cells, and NCI-N87 gastric cancer cell lines were grown in RPMI-1640 medium (Sigma-Aldrich) supplemented as above. Stably transfected U2OS cells were maintained in standard medium containing 1 mg ml^−1 G418 (Invitrogen). The siRNA duplexes were obtained from Life Sciences: Lamin A/C stealth RNAi: […] (SEQ ID NO: 1) and […] (SEQ ID NO: 2), NAT10 stealth RNAi: […] (SEQ ID NO: 3), and as control siRNA, stealth RNAi negative control duplexes were used. Plasmid DNA and siRNA transfections were carried out using Lipofectamine 2000 and Lipofectamine RNAiMax (Life Sciences) respectively, following the manufacturer's instructions. Cells were analysed 48 to 72 hours after transfection.
The following KAT and KDAC inhibitors were used in the nuclear shape rescue screen, incubating cells with the molecules for 16 hours: trichostatin A (1 μM), sodium butyrate (5 mM), tubacin (10 μM), SAHA (5 μM), curcumin (10 μM), garcinol (50 μM), anacardic acid (1 μM), MB-3 (5 μM), 4-(4-chlorophenyl)-2-(2-cyclopentylidenehydrazinyl)thiazole (Compound 2) (50 μM), 4-(4-chlorophenyl)-2-(2-cyclopentylidene-1-(prop-2-yn-1-yl)hydrazinyl)thiazole (Compound 3) (50 μM) and cyclopentylidene-[4-(4-cyanophenyl)thiazol-2-yl)hydrazine (Compound 1) (Remodelin) (10 to 50 μM). For HGPS cellular fitness assays, Remodelin was incubated at 1 μM for 1 to 10 days, renewing the medium every 3 days. For long-term senescence assay, cells were kept and passaged in medium containing 1 μM Remodelin or DMSO only for 12 population doublings. Senescence was assessed after 8 days of Remodelin treatment when cells were at Population Doubling 12, and then after several weeks of Remodelin treatment, when cells reached Population Doubling 24 using the Senescence β-Galactosidase Staining Kit #9860 from Cell Signaling. Nocodazole, colchicine and latrunculin A (Sigma-Aldrich) were used at 200 ng/ml, 1 μg/ml and 1 μM respectively. […]

[2] = tested on: cells (sub-cellular distribution); assay: Fluorescent labelling of clickable molecules (sub-cellular distribution); type: cell-based; settings: 2 hours pre-incubation, Alexa fluor 488 Azide click
Procedure: Cells were pre-incubated with clickable molecules Compound 3 or Reference Compound A (1-Chloro-4-ethynilbenzene, purchased from Sigma-Aldrich) for 2 hours before being fixed and permeabilised as described above. Click reaction was prepared using Invitrogen Click-iT reagents with Alexa fluor 488 Azide and incubated with fixed cells for 1 hour in the dark. In case of co-labelling with another protein, the click reaction was performed before the antibody incubations.

Row | SMILES | misshapen nuclei / nuclear shape of HGPS cells [1] | sub-cellular distribution of fluorescently labelled molecule [2]
1 | N#Cc1ccc(-c2csc(NN=C3CCCC3)n2)cc1 [Compound 1, 4-(4-Cyanophenyl)-2-(2-cyclopentylidenehydrazinyl)thiazole] | significantly reduced the number of HGPS cells with misshapen nuclei | –
2 | C#CCN(N=C1CCCC1)c1nc(-c2ccc(Cl)cc2)cs1 [Compound 3, 4-(4-Chlorophenyl)-2-(2-cyclopentylidene-1-(prop-2-yn-1-yl)hydrazinyl)thiazole] | – | predominant accumulation of Compound 3 in nucleoli
